# According to the COVID Moonshot data (paper PMC11187573), “Identification of SARS-CoV-2 Mpro inhibitors through deep reinforcement learning for de novo drug design and computational chemistry approaches” (RSC Medicinal Chemistry, 2024):
# Molecular target: SARS-CoV-2 Main Protease (SARS-CoV-2) (UniProt P0DTD1)
# Details: not given
row,SMILES,IC50
1,O=C(c1cc(=O)[nH]c2ccccc12)N1CCN(c2cccc(C(F)(F)F)c2)CC1,5.65 µM
2,Cc1ccn2cnnc2c1NC(=O)Cc1cccc(Cl)c1,83.4 µM
3,Cc1ccc(NC2=C(c3ccccc3)C(=O)N(Cc3cccnc3)C2=O)c(C)c1,54.6 µM
4,O=C(Cn1nnc2ccccc21)N(Cc1ccsc1)c1ccc(N2CCCCC2)cc1,6.29 µM
5,Cc1ccncc1NC(=O)Cc1cc(Cl)cc(NC2(C)CCC(F)(F)CC2)c1,45.5 µM
6,C[C@@H]1C[C@@H](C(=O)Nc2cncc3ccccc23)c2cc(Cl)ccc2O1 (stereo in doubt),0.524 µM
7,Cc1cc(C(F)(F)F)nc2n[nH]c(NC(=O)Cc3cccc(Cl)c3)c12,82 µM
8,CNC(=O)Nc1ccc(N(Cc2ccsc2)C(=O)Cn2nnc3ccccc32)cc1,15.3 µM
9,COc1ccccc1OCCC(=O)Nc1cncc2ccccc12,85.4 µM
10,O=C(Cc1cccc(Cl)c1)Nc1cncc2c1CCC2,4.65 µM
11,Cc1ccncc1N1CCC(c2cccc(Cl)c2)S1(=O)=O (stereo not drawn),68.2 µM
12,Cc1ccncc1NC(=O)Cc1cc(Cl)cc(-c2ccc(C)c(F)c2F)c1,56.2 µM
13,O=C(Nc1cccnc1)[C@@H](c1ccccc1)N1Cc2ccccc2C1=O (stereo in doubt),59.6 µM
14,COc1ccc(Cl)cc1OCCNC(=O)c1cc(=O)[nH]c2cccc(OC)c12,0.19 µM
15,COc1ccc(Cl)cc1OCCNC(=O)c1cc(=O)[nH]c2ccccc12,0.692 µM
16,Cc1ccncc1N1CCC(c2cccc(Cl)c2)C1=O (stereo not drawn),12.9 µM
17,O=C(Cc1cc(Cl)cc(CC2CC(=O)N2)c1)Nc1cncc2ccccc12 (stereo not drawn),4.42 µM
18,O=C(Cc1cncc2ccccc12)N1CCOc2ccc(Cl)cc21,3.66 µM
19,O=C(Cc1cccc(Cl)c1)Nc1cnccc1-c1ccccc1,25.1 µM
20,CN(C)c1ccc(N(Cc2ccn[nH]2)C(=O)Cn2nnc3ccccc32)cc1,90.8 µM
21,CC(C)(C)c1ccc(N(C(=O)c2cn[nH]c2)C(C(=O)NCCc2cccc(F)c2)c2cccnc2)cc1 (stereo not drawn),4.84 µM
22,COc1ccc2c(NC(=O)C3CCOc4ccc(Cl)cc43)noc2c1 (stereo not drawn),53.4 µM
23,Cc1ccc(NC2=C(c3ccccc3)C(=O)N(Cc3cccnc3)C2=O)cc1Cl,32.2 µM
24,O=C(c1cncc2ccccc12)N1CCN(c2cccc(Cl)c2)CC1,0.833 µM
25,O=C(Nc1cncc2ccccc12)C1(CCC2CC2)CCOc2ccc(Cl)cc21 (stereo not drawn),93.9 µM

row,SMILES,IC50
1,O=C(Nc1cncc2ccccc12)[C@H]1COc2ccc(Cl)cc2C1 (stereo in doubt),37.7 µM
2,CN(C)c1ccc(N(Cc2cccc(Cl)c2)C(=O)Cn2nnc3ccccc32)cc1,0.391 µM
3,O=C(Nc1ccc(Cl)cc1)[C@@H](c1ccccc1)N1Cc2ccccc2C1=O (stereo in doubt),65 µM
4,COc1cc(COc2cc(Cl)cc(CC(=O)Nc3cnccc3C)c2)ccc1OC(F)F,7.39 µM
5,Nc1nn(C(=O)C2CCOc3ccc(Cl)cc32)c2cc(F)ccc12 (stereo not drawn),53.3 µM
6,Cc1ccncc1NC(=O)Cc1cc(Cl)cc(-c2ccc(C3(C)CCO3)cc2)c1 (stereo not drawn),15.3 µM
7,O=C(Cc1cccc(Cl)c1)Nc1[nH]nc2cc(F)ccc12,91.5 µM
8,Cc1ccncc1NC(=O)Cc1cc(Cl)cc(OCc2ncn[nH]2)c1,81 µM
9,Cc1ccncc1NC(=O)Cc1cc(Cl)cc(-c2ccc(C3CC3(F)F)cc2)c1 (stereo not drawn),2.83 µM
10,O=C(CCc1cccc(Cl)c1)Nc1cncc2ccccc12,19.3 µM
11,O=C(Nc1cncc2ccccc12)C1COc2c(Cl)cccc21 (stereo not drawn),5.36 µM
12,O=C(Cc1cccc(Cl)c1)Nc1[nH]nc2cccc(F)c12,81.8 µM
13,Cc1noc(COc2cc(Cl)cc(CC(=O)Nc3cnccc3C)c2)n1,24.3 µM
14,O=C1OC(c2cccs2)=N/C1=C\c1ccc(N2CCOCC2)s1,0.706 µM
15,COc1ccc2nnn(CC(=O)N(Cc3ccccn3)c3ccc(C4CCNCC4)cc3)c2c1,32.2 µM
16,O=C(Nc1cccc(F)c1)[C@@H](c1ccccc1)N1Cc2ccccc2C1=O (stereo in doubt),59.9 µM
17,C[C@@H]1C[C@H](C(=O)Nc2cncc3ccccc23)c2cc(Cl)ccc2O1 (stereo in doubt),2.66 µM
18,Cc1ccc(NC2=C(c3ccccc3)C(=O)N(Cc3cccnc3)C2=O)cc1C,43.5 µM
19,Cc1ccncc1NC(=O)Cc1cc(Cl)cc(NS(N)(=O)=O)c1,14.5 µM
20,O=C(Nc1n[nH]c2ccnc(Br)c12)C1CCOc2ccc(Cl)cc21 (stereo not drawn),74.2 µM
21,O=C(Nc1cncc2ccccc12)C1COc2ccc(Cl)cc21 (stereo not drawn),0.509 µM
22,Cc1cc2c(c(O)c1-c1c(C)cc(O)c3c1C(=O)C=CC3=O)C(=O)C=CC2=O,8.41 µM
23,Cc1ccncc1NC(=O)Cc1cc(Cl)cc(C2COC2)c1,56.9 µM
24,O=C(Cc1cccc(Cl)c1)Nc1cncc2c1CCCC2,1.84 µM
25,Cc1c(N)cncc1NC(=O)Cc1cccc(Cl)c1,8.2 µM

row,SMILES,IC50
1,CNc1ccc(N(C(=O)Cn2nnc3ccccc32)c2cccc(Cl)c2)cc1,10.6 µM
2,CC(C)CCN1C(=O)C(=O)c2cc(Br)ccc21,24.3 µM
3,Cc1ccncc1NC(=O)Cc1cc(Cl)cc(OCc2cc(-c3ccc(Cl)cc3)no2)c1,48.8 µM
4,COc1c(Cl)cccc1OCCNC(=O)c1cc(=O)[nH]c2ccccc12,16.5 µM
5,CC(C)(C)c1ccc(N(C(=O)c2cnc[nH]2)C(C(=O)NCCc2cccc(F)c2)c2cccnc2)cc1 (stereo not drawn),1.05 µM
6,CN(C)c1ccc(N(Cc2cscn2)C(=O)Cn2nnc3ccccc32)cc1,14.3 µM
7,O=C(Cc1cccc(Cl)c1)Nc1cncc2c1CCCN2,4.04 µM
8,Cc1ccncc1NC(=O)Cc1cc(Cl)cc(OCc2nnc(C3CCCCC3)o2)c1,13.3 µM
9,O=C(Cn1nnc2ccccc21)N(Cc1ccccc1)c1ccc(N2CCOCC2)cc1,18.2 µM
10,Cc1cc(C(F)(F)F)nc2n[nH]c(NC(=O)C3CCOc4ccc(Cl)cc43)c12 (stereo not drawn),98.1 µM
11,O=C(Nn1nnc2ccccc21)C(Cc1cccc(Cl)c1)c1ccc(N2CCCCC2=O)cc1 (stereo not drawn),81.8 µM
12,O=C(Cc1cccc(Cl)c1)Nc1nnc2ccccn12,93.9 µM
13,Cc1ccncc1NC(=O)Cc1cc(Cl)cc(S(N)(=O)=O)c1,13.1 µM
14,C=CC(=O)N(c1cc(C(C)(C)C)on1)C(C(=O)NCCc1cccc(F)c1)c1cncc(C#N)c1 (stereo not drawn),10.6 µM
15,Cc1ccncc1NC(=O)Cc1cc(Cl)cc(OC2COC2)c1,15.3 µM
16,O=C(Nc1cncc2ccccc12)C1CCCc2ccc(Cl)cc21 (stereo not drawn),0.289 µM
17,Nc1nn(C(=O)Cc2cccc(Cl)c2)c2cccc(F)c12,52.6 µM
18,CC(C)(C)c1ccc(N(C(=O)c2ccc(Cl)o2)C(C(=O)NCCc2cccc(F)c2)c2cccnc2)cc1 (stereo not drawn),0.515 µM
19,Nc1nn(C(=O)C2CCOc3ccc(Cl)cc32)c2ccncc12 (stereo not drawn),95.2 µM
20,Cc1ccncc1NC(=O)Cc1cc(Cl)cc(NCC(C)(C)C#N)c1,32.9 µM
21,N#Cc1ncn(CC(=O)Nc2ccc(Br)cc2Cl)n1,2.87 µM
22,Cc1c(C(=O)CCl)c2ccccn2c1C(=O)c1ccc(F)cc1,0.706 µM
23,O=C(Cc1cccc(Cl)c1)Nc1n[nH]c2ccc(F)cc12,88.6 µM
24,Cc1cc(C(F)(F)F)nc2c1c(N)nn2C(=O)C1CCOc2ccc(Cl)cc21 (stereo not drawn),57.8 µM
25,Cc1c(N)cncc1NC(=O)Cc1cccc(C#N)c1,32.2 µM

# Same assay, conditions: 20.0 µM
row,SMILES,inhibition
1,CC(=O)Nc1cccc(N2CCCC2=O)c1,11.4%
2,CC(=O)N1CCN(Cc2ccsc2)CC1,98.5%

# Same assay, conditions: 50.0 µM
row,SMILES,inhibition
1,O=C(c1cc(=O)[nH]c2ccccc12)N1CCN(c2cccc(C(F)(F)F)c2)CC1,71%
2,O=C(CN(C(=O)Cc1cccnc1)c1ccc(-c2ncccn2)cc1)N1CCNCC1,0%
3,O=C(Nc1cncc2ccccc12)C1CCOc2ccc(Br)cc21 (stereo not drawn),90.6%
4,COc1ccc(OCc2ccccc2)cc1-c1cc(=O)c2ccccc2o1,7.52%
5,CC(=O)O[C@@H]1OC2OC(=O)[C@H](C)C3=C([C@@]4(C)CCCC(C)(C)C4)CCC1C32 (stereo in doubt),0%
6,Cc1oncc1C(=O)Nc1ccc(C(F)(F)F)cc1,0%
7,CC(C)(C)C(=O)C(C#N)C(=O)Nc1ccc(Cl)cc1 (stereo not drawn),0%
8,O=C(O)c1cn(-c2ccc(F)cc2)c2cc(N3CCNCC3)c(F)cc2c1=O,20%
9,CC(C)(C)c1ccc(N(C(=O)c2cn[nH]c2)C(C(=O)NCCc2cccc(F)c2)c2cccnc2)cc1 (stereo not drawn),100%
10,COc1ccc2c(=O)cc(-c3ccc(OCc4ccccc4)cc3)oc2c1,10.7%
11,O=c1cc(-c2ccc(OCc3ccccc3)cc2)oc2ccccc12,35.9%
12,N#CC(C(=O)Nc1ccccc1)C(=O)c1cccs1 (stereo not drawn),0%
13,CC(C)(C)c1ccc(N(C(=O)c2ccco2)[C@H](C(=O)NCCc2cccc(F)c2)c2cccnc2)cc1,100%
14,O=C(c1cc(=O)[nH]c2ccccc12)N1CCN(Cc2cccc(Cl)c2)CC1,50.9%
15,CC(=O)Nc1cccc(N2CCCC2=O)c1,22.7%
16,CC(C)C1=C(O)C(=O)C2=C(CC[C@H]3C(C)(C)CCC[C@]23C)C1=O (stereo in doubt),10.2%
17,O=C1OC(c2cccs2)=N/C1=C\c1ccc(N2CCOCC2)s1,91.7%
18,O=c1ccc2c3ccc(=O)c4c(O)ccc(c5ccc(O)c1c52)c43,42.5%
19,O=C(NC[C@@]1(COc2ccc(C(F)(F)F)cn2)C[C@@H](O)[C@@H](O)C1)Nc1cccnc1,0%
20,COc1ccc2nnn(CC(=O)N(Cc3ccccn3)c3ccc(C4CCNCC4)cc3)c2c1,94.8%
21,Cc1ccncc1NC(=O)Cc1cc(Cl)cc(NS(N)(=O)=O)c1,87.9%

row,SMILES,inhibition
1,O=C(Nc1cncc2ccccc12)C1COc2ccc(Cl)cc21 (stereo not drawn),77%
2,Cc1cc2c(c(O)c1-c1c(C)cc(O)c3c1C(=O)C=CC3=O)C(=O)C=CC2=O,100%
3,Cc1cc(O)c2c3c(ccc2c1)C(=O)c1c(O)cccc1C3=O,5%
4,CS(=O)(=O)Nc1cccc(C2=NN(C(=O)CCl)C(c3ccccc3)C2)c1 (stereo not drawn),57.6%
5,CN(CC(=O)Nc1ccccc1Br)C(=O)CCl,52.3%
6,Cc1ccncc1NC(=O)Cc1cc(Cl)cc(OCc2cc(-c3ccc(Cl)cc3)no2)c1,41.8%
7,COc1ccc2c(=O)cc(-c3cc(OCc4ccccc4)ccc3OC)oc2c1,1.98%
8,CC(C)(C)c1ccc(N(C(=O)c2cnc[nH]2)C(C(=O)NCCc2cccc(F)c2)c2cccnc2)cc1 (stereo not drawn),100%
9,Cc1ccncc1NC(=O)Cc1cc(Cl)cc(OCc2nnc(C3CCCCC3)o2)c1,100%
10,C[N+]1=C2C=C(NCCc3ccc(O)cc3)C(=O)c3[nH]cc(c32)CC1,2.74%
11,Cc1ccncc1NC(=O)Cc1cc(Cl)cc(S(N)(=O)=O)c1,64%
12,CC(C)(C)c1ccc(N(C(=O)c2ccc(Cl)o2)C(C(=O)NCCc2cccc(F)c2)c2cccnc2)cc1 (stereo not drawn),69.3%
13,C/C=C1\C(C2(C)CCCC(C)(C)C2)=CCC2C1[C@@H](OC(C)=O)O[C@H]2OC(C)=O (stereo in doubt),0%
14,Cc1ccncc1NC(=O)Cc1cc(Cl)cc(NS(C)(=O)=O)c1,54.6%
15,Cc1c(C(=O)CCl)c2ccccn2c1C(=O)c1ccc(F)cc1,94.7%
16,Cc1cc(C(=O)CCl)c(C)n1NC(=O)c1n[nH]c(=O)c2ccccc12,42.3%
17,O=C(CC(C[S][Au])C(=O)[O][Na])[O][Na] (stereo not drawn),39.1%
18,C[C@H]1O[C@H](C)C2Oc3cc(O)c4c(=O)c5c6c7c8c(cc(=O)c9c(O)c1c2c(c3c47)c98)O[C@@H]6[C@@H](C)O[C@@H]5C (stereo in doubt),0%
19,CC(=O)N1CCN(Cc2ccsc2)CC1,97.4%
20,CC(C)(O)CC1C2=C(Oc3c1c1c(c4ccccc34)OC(C)(C)C=C1)C(=O)c1ccccc1C2=O (stereo not drawn),3.92%
